Results: ChEMBL document CHEMBL5380814, “Targeting Receptor-Interacting Protein Kinase 1 by Novel Benzothiazole Derivatives: Treatment of Acute Lung Injury through the Necroptosis Pathway” (J Med Chem, 2023)
Activity calls are given as the source filed them. No cut-off for these calls is given here.

Experiments:
Mus musculus [1] = test: In vivo anti-necrotptic activity in mTNFalpha induced C57BL/6J SIRS mouse model assessed as reduction in serum IL-1beta level pretreated at 5 to 20 mg/kg, po for 1 hr followed by mTNFalpha/Z-VAD-FMK administration measured after 3 hrs by ELISA analysis; assay type: functional, organism-based; conditions: dose 5-20 mg/kg, time 4.0 hrs
Mus musculus [2] = test: In vivo anti-inflammatory activity in NNK induced induced C57BL/6J ALI mouse model assessed as decrease in bronchoalveolar lavage fluid (BALF) IL-6 level pretreated at 25 to 100 mg/kg, ip for 1 hr followed by NNK administration; assay type: functional, organism-based; conditions: dose 25-100 mg/kg
Mus musculus [3] = test: In vivo anti-inflammatory activity in NNK induced induced C57BL/6J ALI mouse model assessed as less bleeding point in lung pretreated at 25 to 100 mg/kg, ip for 1 hr followed by NNK administration by HE staining analysis; assay type: functional, organism-based; conditions: dose 25-100 mg/kg
HT-29 [4] = test: Anti-necroptotic activity in human HT-29 cells assessed as protection against human TNFalpha/cycloheximide induced necroptosis preincubated with compound upto 10 uM for 16 to 24 hrs followed by TC stimulation for 24 hrs measured by cell-titre glo luminescent cell viability assay; assay type: functional, cell-based; conditions: time 40-48 hrs
Mus musculus [5] = test: In vivo anti-inflammatory activity in NNK induced induced C57BL/6J ALI mouse model assessed as lung injury score pretreated at 100 mg/kg, ip for 1 hr followed by NNK administration relative to disease model (reference value: 5.7 +/- 0.5); assay type: functional
U-937 [6] = test: Anti-necroptotic activity in human U-937 cells assessed as protection against human TNFalpha/Smac mimetic/Z-VAD-FMK induced necroptosis preincubated with compound upto 50 nM for 16 to 24 hrs followed by TSZ stimulation for 12 hrs measured by cell-titre glo luminescent cell viability assay; assay type: functional, cell-based; conditions: time 28-36 hrs
Mus musculus [7] = test: In vivo anti-necrotptic activity in mTNFalpha induced C57BL/6J SIRS mouse model assessed as survival rate pretreated at 10 mg/kg, po for 1 hr followed by mTNFalpha/Z-VAD-FMK administration measured after 40 mins relative to control; assay type: functional; conditions: time 100 min, 1.667 h
U-937 [8] = test: Anti-necroptotic activity in human U-937 cells assessed as protection against human TNFalpha/cycloheximide/Z-VAD-FMK induced necroptosis preincubated with compound at 1 to 7 uM for 16 to 24 hrs followed by TCZ stimulation for 12 hrs measured by cell-titre glo luminescent cell viability assay; assay type: functional, cell-based; conditions: dose 1-7 µM, time 28-36 hrs
Mus musculus [9] = test: In vivo anti-necrotptic activity in mTNFalpha induced C57BL/6J SIRS mouse model assessed as protection from body temperature loss pretreated at 20 mg/kg, po for 1 hr followed by mTNFalpha/Z-VAD-FMK administration measured after 45 mins by electric thermometer; assay type: functional, organism-based; conditions: time 105.0 min
Mus musculus [10] = test: In vivo anti-inflammatory activity in NNK induced induced C57BL/6J ALI mouse model assessed as mild alveolar thickening in lung pretreated at 25 to 100 mg/kg, ip for 1 hr followed by NNK administration by HE staining analysis; assay type: functional, organism-based; conditions: dose 25-100 mg/kg
HT-29 [11] = test: Cytotoxicity against human HT-29 cells incubated for 16 to 24 hrs measured by cell-titre glo luminescent cell viability assay; assay type: functional; conditions: time 16-24 hrs
Mus musculus [12] = test: In vivo anti-inflammatory activity in NNK induced induced C57BL/6J ALI mouse model assessed as decrease in wet lung weight pretreated at 25 to 100 mg/kg, ip for 1 hr followed by NNK administration relative to disease model; assay type: functional, organism-based; conditions: dose 25-100 mg/kg
Mus musculus [13] = test: In vivo anti-necrotptic activity in mTNFalpha induced C57BL/6J SIRS mouse model assessed as reduction in serum IL-6 level pretreated at 5 to 20 mg/kg, po for 1 hr followed by mTNFalpha/Z-VAD-FMK administration measured after 3 hrs by ELISA analysis; assay type: functional, organism-based; conditions: dose 5-20 mg/kg, time 4.0 hrs
Mus musculus [14] = test: In vivo anti-inflammatory activity in NNK induced induced C57BL/6J ALI mouse model assessed as decrease in dry lung weight pretreated at 25 to 100 mg/kg, ip for 1 hr followed by NNK administration relative to disease model; assay type: functional, organism-based; conditions: dose 25-100 mg/kg
Mus musculus [15] = test: In vivo anti-inflammatory activity in NNK induced induced C57BL/6J ALI mouse model assessed as intact alveolar structure in lung pretreated at 25 to 100 mg/kg, ip for 1 hr followed by NNK administration by HE staining analysis; assay type: functional, organism-based; conditions: dose 25-100 mg/kg
Mus musculus [16] = test: In vivo anti-necrotptic activity in mTNFalpha induced C57BL/6J SIRS mouse model assessed as survival rate pretreated at 5 mg/kg, po for 1 hr followed by mTNFalpha/Z-VAD-FMK administration measured after 40 mins relative to control; assay type: functional; conditions: time 100 min, 1.667 h
HT-29 [17] = test: Anti-necroptotic activity in human HT-29 cells assessed as protection against human TNFalpha/Smac mimetic/Z-VAD-FMK induced necroptosis preincubated with compound at 50 nM for 16 to 24 hrs followed by TSZ stimulation for 12 hrs measured by cell-titre glo luminescent cell viability assay relative to control; assay type: functional; conditions: time 28-36 hrs
HT-29 [18] = test: Anti-necroptotic activity in human HT-29 cells assessed as protection against human TNFalpha/cycloheximide/Z-VAD-FMK induced necroptosis preincubated with compound at 0.3 uM for 16 to 24 hrs followed by TCZ stimulation for 16 hrs measured by cell-titre glo luminescent cell viability assay relative to control; assay type: functional; conditions: time 32-40 hrs
HT-29 [19] = test: Anti-necroptotic activity in human HT-29 cells assessed as inhibition of human TNFalpha/Smac mimetic/Z-VAD-FMK induced necroptosis preincubated with compound upto 50 nM for 16 to 24 hrs followed by TSZ stimulation for 12 hrs measured by cell-titre glo luminescent cell viability assay; assay type: functional, cell-based; conditions: time 28-36 hrs
HT-29 [20] = test: Anti-necroptotic activity in TSZ induced human HT-29 cells assessed as inhibition of necrosome formation preincubated with compound at 1 uM for 6 hrs followed by TSZ stimulation for 6 hrs measured by cell-titre glo luminescent cell viability assay; assay type: functional, cell-based; conditions: time 12.0 hrs
L929 = test: Anti-necroptotic activity in mouse L929 cells assessed as inhibition of mouse TNFalpha/Z-VAD-FMK induced necroptosis preincubated with compound for 16 to 24 hrs followed by TZ stimulation for 12 hrs measured by cell-titre glo luminescent cell viability assay; assay type: functional, cell-based; conditions: dose 6.3-800 nM, time 28-36 hrs
[21] = biological target: Receptor-interacting serine/threonine-protein kinase 3 (Homo sapiens, UniProt Q9Y572); test: Binding affinity to human wildtype full length RIPK3 (M1 to Q307 residues) expressed in bacterial expression system assessed as dissociation constant by kinome scan kd select based qPCR analysis
Chain of Receptor-interacting serine/threonine-protein kinase 3 (Q9Y572 whole entry, the tested form may be a part): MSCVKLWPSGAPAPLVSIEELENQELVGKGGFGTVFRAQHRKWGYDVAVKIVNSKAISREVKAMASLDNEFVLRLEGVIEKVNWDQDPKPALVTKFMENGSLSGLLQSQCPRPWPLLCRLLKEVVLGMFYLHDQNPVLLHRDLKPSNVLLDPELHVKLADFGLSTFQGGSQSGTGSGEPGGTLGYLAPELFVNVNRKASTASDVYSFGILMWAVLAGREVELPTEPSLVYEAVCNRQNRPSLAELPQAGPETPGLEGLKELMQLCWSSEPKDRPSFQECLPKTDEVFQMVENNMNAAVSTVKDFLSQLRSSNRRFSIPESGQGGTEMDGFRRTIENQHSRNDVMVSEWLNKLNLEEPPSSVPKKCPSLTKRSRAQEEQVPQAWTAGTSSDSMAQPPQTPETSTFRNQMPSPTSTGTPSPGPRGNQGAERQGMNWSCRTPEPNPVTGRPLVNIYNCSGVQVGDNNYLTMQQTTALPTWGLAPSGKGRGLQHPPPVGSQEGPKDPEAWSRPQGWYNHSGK

Mus musculus [22] = test: In vivo anti-inflammatory activity in NNK induced induced C57BL/6J ALI mouse model assessed as decrease in bronchoalveolar lavage fluid (BALF) TNF-alpha level pretreated at 25 to 100 mg/kg, ip for 1 hr followed by NNK administration; assay type: functional, organism-based; conditions: dose 25-100 mg/kg
HT-29 [23] = test: Anti-necroptotic activity in human HT-29 cells assessed as inhibition of human TNFalpha/Smac mimetic/Z-VAD-FMK induced necroptosis preincubated with compound followed by TSZ stimulation for 12 hrs; assay type: functional, cell-based
Mus musculus [24] = test: In vivo anti-inflammatory activity in NNK induced induced C57BL/6J ALI mouse model assessed as decrease in inflammatory cell infiltration pretreated at 25 to 100 mg/kg, ip for 1 hr followed by NNK administration by HE staining analysis; assay type: functional, organism-based; conditions: dose 25-100 mg/kg

CCS(=O)(=O)NC1CCC(C(=O)Nc2nc3cc(F)c(Oc4ccc(F)c(NC(=O)Cc5cccc(C(F)(F)F)c5)c4)cc3s2)CC1 (stereo not given)
Activity (Mus musculus [1]): Active
Activity (Mus musculus [2]): Active
Activity (Mus musculus [3]): Active
Activity (HT-29 [4]): inactive
Activity (Mus musculus [5]): 2.7
Activity (U-937 [6]): inactive
Activity (Mus musculus [7]): 90%
Activity (U-937 [8]): Active
Activity (Mus musculus [9]): Active
Activity (Mus musculus [10]): Active
CC50 (HT-29 [11]): > 100 µM
Activity (Mus musculus [12]): Active
Activity (Mus musculus [13]): Active
Activity (Mus musculus [14]): Active
Activity (Mus musculus [15]): Active
Activity (Mus musculus [16]): 30%
Activity (HT-29 [17]): 100%
Activity (HT-29 [18]): >50%
Activity (HT-29 [19]): Dose-Dependent Effect
Activity (HT-29 [20]): Active
Activity (L929): Dose-Dependent Effect
Kd [21]: > 10 µM
Activity (Mus musculus [22]): Active
Activity (HT-29 [23]): inactive
Activity (Mus musculus [24]): Active
